Data published in patent publication US9770022B2, “N-cycloalkyl-N-[(bicyclylphenyl)methylene]-(thio)carboxamide derivatives” (BAYER CROPSCIENCE AG, priority 2013, dated 2017).
Like-named read-outs stand apart in the source and are kept apart here.

Key:
[1] = tested on: Pyrenophora teres; experiment: In vivo preventive test on Pyrenophora teres (barley); details: 500 ppm of active ingredient, evaluated 14 days after inoculation
Protocol: (§1) Solvent: 5% by volume of Dimethyl sulfoxide
(§2) • 10% by volume of Acetone Emulsifier: 1 μl of Tween® 80 per mg of active ingredient
(§3) The active ingredients are made soluble and homogenized in a mixture of Dimethyl sulfoxide/Acetone/Tween® 80 and then diluted in water to the desired concentration.
The young plants of barley are treated by spraying the active ingredient prepared as described above. Control plants are treated only with an aqueous solution of Acetone/Dimethyl sulfoxide/Tween® 80.
After 24 hours, the plants are contaminated by spraying the leaves with an aqueous suspension of Pyrenophora teres spores. The contaminated barley plants are incubated for 48 hours at 20° C. and at 100% relative humidity and then for 12 days at 20° C. and at 70-80% relative humidity.
The test is evaluated 14 days after the inoculation. 0% means an efficacy which corresponds to that of the control plants while an efficacy of 100% means that no disease is observed.

[2] = tested on: Sphaerotheca fuliginea; experiment: In vivo preventive test on Sphaerotheca fuliginea (powdery mildew on cucurbits); details: 500 ppm of active ingredient; gherkin; evaluated 15 days after inoculation
Protocol: as §1, §2, §3
The young plants of gherkin are treated by spraying the active ingredient prepared as described above. Control plants are treated only with an aqueous solution of Acetone/Dimethyl sulfoxide/Tween® 80.
After 24 hours, the plants are contaminated by spraying the leaves with an aqueous suspension of Sphaerotheca fuliginea spores. The contaminated gherkin plants are incubated for 72 hours at 18° C. and at 100% relative humidity and then for 12 days at 20° C. and at 70-80% relative humidity.
The test is evaluated 15 days after the inoculation. 0% means an efficacy which corresponds to that of the control plants while an efficacy of 100% means that no disease is observed.

[3] = tested on: Puccinia recondita; experiment: In vivo preventive test on Puccinia recondita (brown rust on wheat); details: 500 ppm of active ingredient, evaluated 11 days after inoculation
Protocol: as §1, §2, §3
(§4) The young plants of wheat are treated by spraying the active ingredient prepared as described above. Control plants are treated only with an aqueous solution of Acetone/Dimethyl sulfoxide/Tween® 80.
After 24 hours, the plants are contaminated by spraying the leaves with an aqueous suspension of Puccinia recondita spores. The contaminated wheat plants are incubated for 24 hours at 20° C. and at 100% relative humidity and then for 10 days at 20° C. and at 70-80% relative humidity.
(§5) The test is evaluated 11 days after the inoculation. 0% means an efficacy which corresponds to that of the control plants while an efficacy of 100% means that no disease is observed.

[4] = tested on: Alternaria brassicae; experiment: In vivo preventive test on Alternaria brassicae (leaf spot on radish); details: 500 ppm of active ingredient, spray 24 hours before inoculation, evaluated 6 days after inoculation
Protocol: as §1, §2, §3
The young plants of radish are treated by spraying the active ingredient prepared as described above. Control plants are treated only with an aqueous solution of Acetone/Dimethyl sulfoxide/Tween® 80.
After 24 hours, the plants are contaminated by spraying the leaves with an aqueous suspension of Alternaria brassicae spores. The contaminated radish plants are incubated for 6 days at 20° C. and at 100% relative humidity.
The test is evaluated 6 days after the inoculation. 0% means an efficacy which corresponds to that of the control plants while an efficacy of 100% means that no disease is observed.

[5] = tested on: Septoria tritici; experiment: In vivo preventive test on Septoria tritici (wheat); details: 500 ppm of active ingredient, evaluated 24 days after inoculation
Protocol: as §1, §2, §3, §4
After 24 hours, the plants are contaminated by spraying the leaves with an aqueous suspension of Septoria tritici spores. The contaminated wheat plants are incubated for 72 hours at 18° C. and at 100% relative humidity and then for 21 days at 20° C. and at 90% relative humidity.
The test is evaluated 24 days after the inoculation. 0% means an efficacy which corresponds to that of the control plants while an efficacy of 100% means that no disease is observed.

[6] = log P by HPLC on reversed-phase column (C 18), EEC Directive 79/831 Annex V.A8; assay type: physicochemical; details: Table 1, HPLC C 18, 40° C., 0.1% aqueous formic acid and acetonitrile, gradient 10% to 90% acetonitrile, two values = mixture of endo and exo isomers
Protocol: In table 1, the log P values were determined in accordance with EEC Directive 79/831 Annex V.A8 by HPLC (High Performance Liquid Chromatography) on a reversed-phase column (C 18), using the method described below:
Temperature: 40° C.; Mobile phases: 0.1% aqueous formic acid and acetonitrile; linear gradient from 10% acetonitrile to 90% acetonitrile.
Calibration was carried out using unbranched alkan-2-ones (comprising 3 to 16 carbon atoms) with known log P values (determination of the log P values by the retention times using linear interpolation between two successive alkanones). lambda-max-values were determined using UV-spectra from 200 nm to 400 nm and the peak values of the chromatographic signals.

[7] = tested on: Uromyces appendiculatus; experiment: In vivo preventive test on Uromyces appendiculatus (bean rust); details: Uromyces appendiculatus, 264 h
Protocol: as §1, §2, §3
The young plants of bean are treated by spraying the active ingredient prepared as described above. Control plants are treated only with an aqueous solution of Acetone/Dimethyl sulfoxide/Tween® 80.
After 24 hours, the plants are contaminated by spraying the leaves with an aqueous suspension of Uromyces appendiculatus spores. The contaminated bean plants are incubated for 24 hours at 20° C. and at 100% relative humidity and then for 10 days at 20° C. and at 70-80% relative humidity.
as §5

| Compound | Efficacy [1] | Efficacy [2] | Efficacy [3] | Efficacy [4] | Efficacy [5] | logP [6] | pest or weed control at 500 ppm ([7]; read-out: Efficacy, 500 ppm of active ingredient, evaluated 11 days after inoculation) | pest or weed control at 500 ppm ([7]; read-out: Efficacy, 500 ppm, evaluated 11 days after inoculation, Table F2 comparison) | pest or weed control at 500 ppm ([7]; read-out: Efficacy, 500 ppm, evaluated 11 days after inoculation, Table F3 comparison) | chromatographic logP ([6]; reversed-phase HPLC column (C 18)) |
| --- | --- | --- | --- | --- | --- | --- | --- | --- | --- | --- |
| Cn1nc(C(F)F)c(C(=O)N(Cc2ccccc2C23CCCCCC2C3(Cl)Cl)C2CC2)c1F (stereo not shown) [I.13] | 75% | 100% | 81% | 75% | 88% | 5.17 | – | – | – | – |
| CC(c1ccccc1C1CC2CCC1C2)N(C(=O)c1c(C(F)F)nn(C)c1F)C1CC1 (stereo not shown) [I.15, N-{1-[2-(bicyclo[2.2.1]hept-2-yl)phenyl]ethyl}-N-cyclopropyl-3-(difluoromethyl)-5-fluoro-1-methyl-1H-pyrazole-4-carboxamide] | 100% | 100% | 88% | 97% | 100% | 4.98 | 88% | ≥ 80% | ≥ 80% | 4.91 |
| CC(C)c1ccc(C2=CC3CCC2(C)C3(C)C)cc1CN(C(=O)c1c(C(F)F)nn(C)c1F)C1CC1 (stereo not shown) [I.16] | 94% | 100% | 94% | 79% | 100% | 6.46 | – | – | – | – |
